Like-named read-outs stand apart in the source and are kept apart here.
What was measured:
[1] = biological target: HCV NS3/4A protease genotype 1b (Hepatitis C virus genotype 1b, UniProt P26663); assay: HCV NS3/4A protease time-resolved fluorescence (TRF) assay, Ki against genotype 1b; format: biochemical
Procedure, shortened: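 Enzyme 0.2 nM 1b / 0.4 nM A156T / 0.025 nM 3a; 30 min preinc. w/ cpd; 25 nM TRF peptide; 2.5 h RT; ex 340/em 615 time-delayed; 4-param IC50 → Ki = IC50/(1+[S]/KM).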

HCV genotype 1b replicon = assay: HCV replicon assay, genotype 1b replicon EC50; format: cell-based, Hepatitis C virus; conditions: Hepatitis C virus, read-out: EC50 [gt-1b]
Procedure, shortened: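 Assay format: compound titration on stable replicon cells, no G418 during treatment, 24 to 48 hours. Lysates were assayed for replicon RNA (hybridization/protection or TaqMan) or luciferase; EC50 fitted to four parameters against DMSO.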

[2] = IC50 [gt-1b] (nM), NS3/4A genotype 1b, enzyme 0.2 nM
[3] = IC50 [gt-1b], NS3/4A protease TRF assay, genotype 1b enzyme 0.2 nM

| SMILES | IC50 [1, 2] [nM] | EC50 (HCV genotype 1b replicon; genotype 1b replicon) [nM] | further results |
| --- | --- | --- | --- |
| Cc1nc2ccccc2c2c1O[C@]1(CC2)C[C@H]2C(=O)N[C@]3(C(=O)NS(=O)(=O)C4(C)CC4)C[C@H]3/C=C\CCCCC[C@H](N(CCC(C)(C)C)CCC(C)(C)C)C(=O)N2C1 [Example 163, (2R,6S,12Z,13aS,14aR,16aS)-6-[bis(3,3-dimethylbutyl)amino]-5′-methyl-N-[(1-methylcyclopropyl)sulfonyl]-5,16-dioxo-1,1′,2′,6,7,8,9,10,11,13a,14,15,16,16a-tetradecahydrospiro[cyclopropa[e]pyrrolo[1,2-a][1,4]diazacyclopentadecine-2,3′-pyrano[2,3-c]quinoline]-14a(5H)-carboxamide] | 6.21 | > 100 |  |
| CC[C@H](C)OC(=O)N[C@H]1CCCCC/C=C\[C@@H]2C[C@@]2(C(=O)NS(=O)(=O)C2(C)CC2)NC(=O)[C@@H]2C[C@]3(CCc4c(c(C(F)F)nc5ccc(OC)cc45)O3)CN2C1=O [Example 444, (2S)-butan-2-yl [(2R,6S,12Z,13aS,14aR,16aS)-5′-(difluoromethyl)-9′-methoxy-14a-{[(1-methylcyclopropyl)sulfonyl]carbamoyl}-5,16-dioxo-1,1′,2′,5,6,7,8,9,10,11,13a,14,14a,15,16,16a-hexadecahydrospiro[cyclopropa[e]pyrrolo[1,2-a][1,4]diazacyclopentadecine-2,3′-pyrano[2,3-c]quinolin]-6-yl]carbamate] |  |  | IC50 ([1]; IC50 [gt-1b], NS3/4A protease TRF assay, genotype 1b enzyme 0.2 nM, K+ salt): 0.014 nM; EC50 (HCV genotype 1b replicon; HCV replicon, genotype 1b, K+ salt): 1.31 nM |
| COc1ccc2nc(C(C)C)c3c(c2c1)CC[C@]1(C[C@H]2C(=O)N[C@]4(C(=O)NS(=O)(=O)C5(C)CC5)C[C@H]4/C=C\CCCCC[C@H](NC(=O)OC(C)(C)C)C(=O)N2C1)O3 [Example 2, tert-Butyl (2R,6S,13aS,14aR,16aS,Z)-5′-isopropyl-9′-methoxy-14a-(1-methylcyclopropylsulfonylcarbamoyl)-5,16-dioxo-1′,2′,3,5,6,7,8,9,10,11,13a,14,14a,15,16,16a-hexadecahydro-1H-spiro[cyclopropa[e]pyrrolo[1,2-a][1,4]diazacyclopentadecine-2,3′-pyrano[2,3-c]quinoline]-6-ylcarbamate] | 0.012 | 1.19 |  |
| COc1ccc2nc(C(C)C)c3c(c2c1)C(F)(F)C[C@]1(C[C@H]2C(=O)N[C@]4(C(=O)NS(=O)(=O)C5(C)CC5)C[C@H]4/C=C\CCCCC[C@H](NC(=O)OC4CCCC4)C(=O)N2C1)O3 [Example 210, cyclopentyl [(2S,6S,12Z,13aS,14aR,16aS)-1′,1′-difluoro-9′-methoxy-14a-{[(1-methylcyclopropyl)sulfonyl]carbamoyl}-5,16-dioxo-5′-(propan-2-yl)-1,1′,2′,5,6,7,8,9,10,11,13a,14,14a,15,16,16a-hexadecahydrospiro[cyclopropa[e]pyrrolo[1,2-a][1,4]diazacyclopentadecine-2,3′-pyrano[2,3-c]quinolin]-6-yl]carbamate] | 0.008 | 2.38 |  |
| CCc1nc2ccc(OC)cc2c2c1O[C@]1(CC2)C[C@H]2C(=O)N[C@]3(C(=O)NS(=O)(=O)C4(C)CC4)C[C@H]3/C=C\CCCCC[C@H](NC(=O)OC3CCCC3)C(=O)N2C1 [Example 336, cyclopentyl [(2R,6S,12Z,13aS,14aR,16aS)-5′-ethyl-9′-methoxy-14a-{[(1-methylcyclopropyl)sulfonyl]carbamoyl}-5,16-dioxo-1,1′,2′,5,6,7,8,9,10,11,13a,14,14a,15,16,16a-hexadecahydrospiro[cyclopropa[e]pyrrolo[1,2-a][1,4]diazacyclopentadecine-2,3′-pyrano[2,3-c]quinolin]-6-yl]carbamate] | 0.008 | 3.46 |  |
| COc1ccc2nc(C3CC3)c3c(c2c1)CC[C@]1(C[C@H]2C(=O)N[C@]4(C(=O)NS(=O)(=O)C5(C)CC5)C[C@H]4/C=C\CCCCC[C@H](NC(=O)OCC(C)C)C(=O)N2C1)O3 [Example 100, 2-methylpropyl [(2R,6S,12Z,13aS,14aR,16aS)-5′-cyclopropyl-9′-methoxy-14a-{[(1-methylcyclopropyl)sulfonyl]carbamoyl}-5,16-dioxo-1,1′,2′,5,6,7,8,9,10,11,13a,14,14a,15,16,16a-hexadecahydrospiro[cyclopropa[e]pyrrolo[1,2-a][1,4]diazacyclopentadecine-2,3′-pyrano[2,3-c]quinolin]-6-yl]carbamate] | 0.011 | 2.08 |  |
| CC(C)(C)OC(=O)N[C@H]1CCCCC/C=C\[C@@H]2C[C@@]2(C(=O)NS(=O)(=O)C2(C)CC2)NC(=O)[C@@H]2C[C@]3(CCc4c(c(C5CC5)nc5ccc6c(c45)OCO6)O3)CN2C1=O [Example 29, tert-butyl (2′R,6′S,13a′S,14a′R,16a′S,Z)-7-cyclopropyl-14a′-(1-methylcyclopropylsulfonylcarbamoyl)-5′,16′-dioxo-3′,5′,6′,7′,8′,9′,10,10′,11,11′,13a′,14′, 14a′,15′,16′,16a′-hexadecahydro-1′H-spiro[[1,3]dioxolo[4,5-f]pyrano[2,3-c]quinoline-9,2′-cyclopropa[e]pyrrolo[1,2-a][1,4]diazacyclopentadecine]-6′-ylcarbamate] | 0.021 | 0.608 |  |
| CC(C)(C)OC(=O)N[C@H]1CCCCC/C=C\[C@@H]2C[C@@]2(C(=O)NS(=O)(=O)C2(C)CC2)NC(=O)[C@@H]2C[C@@]3(CCc4c(ccc5ccccc45)O3)CN2C1=O [Example 72, tert-butyl [(3S,6′S,12′Z,13a′S,14a′R,16a′S)-14a′-{[(1-methylcyclopropyl)sulfonyl]carbamoyl}-5′,16′-dioxo-1,1′,2,5′,6′,7′,8′,9′,10′,11′,13a′,14′,14a′,15′,16′,16a′-hexadecahydrospiro[benzo[f]chromene-3,2′-cyclopropa[e]pyrrolo[1,2-a][1,4]diazacyclopentadecin]-6′-yl]carbamate] | 0.665 | 24.2 |  |
| Cc1nc2cc(F)c(F)cc2c2c1O[C@]1(CC2)C[C@H]2C(=O)N[C@]3(C(=O)NS(=O)(=O)C4(C)CC4)C[C@H]3/C=C\CCCCC[C@H](NC(=O)OC(C)(C)C(F)(F)F)C(=O)N2C1 [Example 381, 1,1,1-trifluoro-2-methylpropan-2-yl [(2R,6S,12Z,13aS,14aR,16aS)-8′,9′-difluoro-5′-methyl-14a-{[(1-methylcyclopropyl)sulfonyl]carbamoyl}-5,16-dioxo-1,1′,2′,5,6,7,8,9,10,11,13a,14,14a,15,16,16a-hexadecahydrospiro[cyclopropa[e]pyrrolo[1,2-a][1,4]diazacyclopentadecine-2,3′-pyrano[2,3-c]quinolin]-6-yl]carbamate] |  |  | IC50 [1, 3]: 0.04 nM; EC50 (HCV genotype 1b replicon; HCV replicon, genotype 1b): 6.74 nM |
| CC(C)(C)OC(=O)N[C@H]1CCCCC/C=C\[C@@H]2C[C@@]2(C(=O)NS(=O)(=O)C2(C)CC2)NC(=O)[C@@H]2C[C@]3(CCc4c(c(C(F)(F)F)nc5ccccc45)O3)CN2C1=O [Example 4, tert-Butyl (2R,6S,13aS,14aR,16aS,Z)-14a-(1-methylcyclopropylsulfonylcarbamoyl)-5,16-dioxo-5′-(trifluoromethyl)-1′,2′,3,5,6,7,8,9,10,11,13a,14,14a,15,16,16a-hexadecahydro-1H-spiro[cyclopropa[e]pyrrolo[1,2-a][1,4]diazacyclopentadecine-2,3′-pyrano[2,3-c]quinoline]-6-ylcarbamate] | 0.009 | 0.813 |  |
| CC1(S(=O)(=O)NC(=O)[C@@]23C[C@H]2/C=C\CCCCC[C@H](NC(=O)OC2CCC2)C(=O)N2C[C@@]4(CCc5c(c(C6CC6)nc6c(F)cccc56)O4)C[C@H]2C(=O)N3)CC1 [Example 175, cyclobutyl [(2R,6S,12Z,13aS,14aR,16aS)-5′-cyclopropyl-7′-fluoro-14a-{[(1-methylcyclopropyl)sulfonyl]carbamoyl}-5,16-dioxo-1,1′,2′,5,6,7,8,9,10,11,13a,14,14a,15,16,16a-hexadecahydrospiro[cyclopropa[e]pyrrolo[1,2-a][1,4]diazacyclopentadecine-2,3′-pyrano[2,3-c]quinolin]-6-yl]carbamate] | 0.028 | 1.67 |  |
| CC[C@H](C)OC(=O)N[C@H]1CCCCC/C=C\[C@@H]2C[C@@]2(C(=O)NS(=O)(=O)C2(C)CC2)NC(=O)[C@@H]2C[C@]3(CCc4c(c(C5CC5)nc5ccc(OC)cc45)O3)CN2C1=O [Example 421, (2S)-butan-2-yl [(2R,6S,12Z,13aS,14aR,16aS)-5′-cyclopropyl-9′-methoxy-14a-{[(1-methylcyclopropyl)sulfonyl]carbamoyl}-5,16-dioxo-1,1′,2′,5,6,7,8,9,10,11,13a,14,14a,15,16,16a-hexadecahydrospiro[cyclopropa[e]pyrrolo[1,2-a][1,4]diazacyclopentadecine-2,3′-pyrano[2,3-c]quinolin]-6-yl]carbamate] |  |  | IC50 [1, 3]: 0.024 nM; EC50 (HCV genotype 1b replicon; HCV replicon, genotype 1b): 1.72 nM |
| COc1ccc2nc(C3CC3)c3c(c2c1)CC[C@]1(C[C@H]2C(=O)N[C@]4(C(=O)NS(=O)(=O)C5(C)CC5)C[C@H]4/C=C\CCCCC[C@H](NC(=O)OC4(C)CC4)C(=O)N2C1)O3 [Example 92, 1-methylcyclopropyl [(2R,6S,12Z,13aS,14aR,16aS)-5′-cyclopropyl-9′-methoxy-14a-{[(1-methylcyclopropyl)sulfonyl]carbamoyl}-5,16-dioxo-1,1′,2′,5,6,7,8,9,10,11,13a,14,14a,15,16,16a-hexadecahydrospiro[cyclopropa[e]pyrrolo[1,2-a][1,4]diazacyclopentadecine-2,3′-pyrano[2,3-c]quinolin]-6-yl]carbamate] | 0.01 | 0.44 |  |
